Results published in patent US20240041884A1, “Pharmaceutical Combinations for Treating Cancer” (Cellestia Biotech AG, priority 2020, published 2024).

How the values were obtained:
HCC1187 cells = experiment: Single agent screening, alamarBlue proliferation assay; assay type: cell-based; conditions: Homo sapiens, HCC1187, 72 hours, read-out: IC50 (μM) values of drugs used as single agent
Procedure: (§1) To determine effect of 6-(4-(tert-butyl)phenoxy)pyridin-3-amine with inhibitors of anti-apoptotic proteins, drugs listed in table 1 were used.
(§2) Cells were treated with each of the listed compounds in table 1 as single agent with a concentration ranging from 10 nM to 10 μM in duplicates. Following treatment for 72 hours, cells were incubated with alamarBlue® for 4 hours and cell proliferation readout was taken using Infinite® F500 (Tecan) plate reader. All volumes (cells and alamarBlue®) were dispensed using Multidrop Combi dispenser using a standard cassette (Speed MEDIUM).
(§3) AlamarBlue® viability assay: alamarBlue® proliferation assays were performed to determine the growth kinetics of compound treated cells. alamarBlue® consists of a cell permeable substrate resazurin. In metabolically active and proliferating cells, resazurin is converted to resorufin due to an intrinsic reducing power of live cells and produces a red fluorescence. Therefore, production of resorufin serves as an indicator of the viability of the cell population. Proliferation assays were performed by seeding 1500 cells/well in 384 well plate format. Cells were treated in duplicates with pre-determined concentration of compounds as a single agent or in combination with 6-(4-(tert-butyl)phenoxy)pyridin-3-amine for 72 hours. To determine growth kinetics, alamarBlue® (Invitrogen) was added to each well and incubated for 4 hours. alamarBlue® readout was taken using Infinite® F500 (Tecan) plate reader.
(§4) Data analysis for individual compounds: To determine anti-proliferative activity and IC50 values of individual compounds (listed in table 1) against HCC1187, MCF-7 and RPMI-8402 cells, data were analyzed using GraphPad Prism.

MCF-7 cells = experiment: as above; assay type: cell-based; conditions: Homo sapiens, MCF7, MCF-7, 72 hours, read-out: IC50 (μM) values of drugs used as single agent
Procedure: as §1, §2, §3, §4

RPMI-8402 cells = experiment: as above; assay type: cell-based; conditions: Homo sapiens, RPMI-8402, 72 hours, read-out: IC50 (μM) values of drugs used as single agent
Procedure: as §1, §2, §3, §4

[1] = tested on: ACC PDX (human adenoid cystic carcinoma patient-derived xenograft); experiment: In vivo efficacy in ACC PDX model, tumor growth inhibition; conditions: ACC PDX in athymic nude mice; for Percentange tumor growth inhibition (TGI): 6-(4-(tert-butyl)phenoxy)pyridin-3-amine 60 mg/kg SC qdx5, Navitoclax 50 mg/kg PO qdx5; for effect on ACC PDX tumor growth: doses of table 5, compared to vehicle
Excerpt: In Vivo Efficacy Evaluation of 6-(4-(tert-butyl)phenoxy)pyridin-3-amine and BCL-2 inhibitor ABT-263 (Navitoclax) in a NOTCH! and BCL-2 Positive Patient-Derived Xenograft (ACC PDX) Model Representing Human Adenoid Cystic Carcinoma in Immune-Deficient Mice
ACC PDX model was implanted into Immuno deficient mice and upon reaching a tumor volume of 150-300 mm^3, animals were randomized for treatment with different agents as indicated below.
Athymic mice transplanted with ACC PDX model were randomized into 4 treatment cohorts. Vehicle treatment • 2. 6-(4-(tert-butyl)phenoxy)pyridin-3 -amine • 3. ABT-263 • 4. 6-(4-(tert-butyl)phenoxy)pyridin-3-amine+ABT-263
Tumor volume was measured every 3-4 days. Mean tumor volume and SEM was calculated and Tumor growth inhibition was calculated using the formula TGI=1−(TXFavg−TXiavg)/(Cfavg−Ciavg), where TX is drug treatment group, favg=average tumor volume at treatment end, iavg=average tumor volume upon treatment initiation, C=Vehile treatment group.

[2] = tested on: Primary human T cell acute lymphoblastic leukemia with activated NOTCH pathway; experiment: Efficacy in mice bearing primary human T-ALL, survival; assay type: in vivo; conditions: NSG mice; 6-(4-(tert-butyl)phenoxy)pyridin-3-amine 40 mg/kg QD5 until termination, Venetoclax 25 mg/kg QD for 7 days
Procedure: Efficacy of 6-(4-(tert-butyl)phenoxy)pyridin-3-amine+Venetoclax combination Primary human T cell acute lymphoblastic leukemia with activated NOTCH pathway were intravenously infused into NSG mice. After 7 days of disease establishment, leukemia-bearing mice were treated as below: • 1. Group 1: Vehicle treatment • 2. Group 2: 6-(4-(tert-butyl)phenoxy)pyridin-3-amine treatment at 40 mg/kg, QD5 until termination of the group • 3. Group 3: Venetoclax treatment at 25 mg/kg, QD for 7 days only • 4. Group 4: Venetoclax at 25 mg/kg , QD for first 7 days+6-(4-(tert-butyl)phenoxy)pyridin-3-amine at 40 mg/kg, QD5 until termination of the group.
Animals were monitored for survival on a daily basis.

blood cells = experiment: Safety evaluation in wildtype mice, whole blood analysis; assay type: in vivo; conditions: 4 consecutive days, day 5 bleed, Venetoclax 12.5, 25, 50 mg/kg, 6-(4-(tert-butyl)phenoxy)pyridin-3-amine 60 mg/kg
Procedure: Wildtype mice were weighed and dosed for 4 consecutive days as below: • 1. Group 1: Vehicle+Vehicle • 2. Group 2: Vehicle+12.5 mg/kg Venetoclax • 3. Group 3: Vehicle+25 mg/k Venetoclax • 4. Group 4: Vehicle+50 mg/kg Venetoclax • 5. […] On day 5, animals were tail vein bled and whole blood analysis was carried out to determine numbers of different cells.

IC50 (HCC1187 cells) [µM]	IC50 (MCF-7 cells) [µM]	Compound	IC50 (RPMI-8402 cells) [µM]	Percentange tumor growth inhibition (TGI) [1] [%]	effect on ACC PDX tumor growth [1]	Number of days by which 100% animals died due to leukemia [2] [days]	effect on blood cells (whole blood analysis) (blood cells)
0.24	0.37	Cc1c(-c2c(-c3ccc(F)o3)sc3ncnc(O[C@H](Cc4ccccc4OCc4ccnn4CC(F)(F)F)C(=O)O)c23)ccc(OCCN2CCN(C)CC2)c1Cl (atropisomer, axis not shown) [S63845, (2R)-2-[5-[3-chloro-2-methyl-4-[2-(4-methylpiperazin-1-yl)ethoxy]phenyl]-6-(5-fluorofuran-2-yl)thieno[2,3-d]pyrimidin-4-yl]oxy-3-[2-[[2-(2,2,2-trifluoroethyl)pyrazol-3-yl]methoxy]phenyl]propanoic acid]	0.04	–	–	–	–
–	–	CC(C)(C)c1ccc(Oc2ccc(N)cn2)cc1 [6-(4-(tert-butyl)phenoxy)pyridin-3-amine]	–	37	induces tumor growth retardation compared to vehicle treated group	30	–
20	21	CC1(C)CCC(c2ccc(Cl)cc2)=C(CN2CCN(c3ccc(C(=O)NS(=O)(=O)c4ccc(N[C@H](CCN5CCOCC5)CSc5ccccc5)c(S(=O)(=O)C(F)(F)F)c4)cc3)CC2)C1 [ABT-263 (Navitoclax), 4-[4-[[2-(4-chlorophenyl)-5,5-dimethylcydohexen-1-yl]methyl]piperazin-1-yl]-N-[4-[[(2R)-4-morpholin-4-yl-1-phenylsulfonylbutan-2-yl]amino]-3-(trifluoromethylsulfonyl)phenyl]sulfonylbenzamide]	5.5	57	induces tumor growth retardation compared to vehicle treated group	–	–
–	–	CC1(C)CCC(CN2CCN(c3ccc(C(=O)NS(=O)(=O)c4ccc(NCC5CCOCC5)c([N+](=O)[O-])c4)c(Oc4cnc5[nH]ccc5c4)c3)CC2)=C(c2ccc(Cl)cc2)C1 [Venetoclax, 4-[4-[[2-(4-chlorophenyl)-4,4-dimethylcydohexen-1-yl]methyl]piperazin-1-yl]-N-[3-nitro-4-(oxan-4-ylmethylamino)phenyl]sulfonyl-2-(1H-pyrrolo[2,3-b]pyridin-5-yloxy)benzamide]	–	–	–	28	decrease of white blood cells, lymphocytes, neutrophils, monocytes and mean platelet mass
